Source: PubChem BioAssay AID1845213 (Molecular Pharmacology Branch, DTP, NCI, 2023)
“And” between values parts separate entries of the source, which are not always exact repeats. Identical values can stand only once. The source made the active and inactive calls. How the source made its calls: active means viability on the fitted dose curve at most 10% of control; inactive means the rest.

Test system: NCI-H841 complex tumor spheroid viability
Assay: Anticancer human tumor NCI-H841 cell line growth inhibition;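 on IC50: spheroids exposed to compounds for 7 days before readout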;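 on viability, T/C: spheroids exposed to compounds for 7 days before readout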
Conditions: for viability, T/C: stronger effect = lower value
Text: Multicellular complex tumor spheroid response to DNA repair inhibitors in combination with DNA-damaging drugs
This study explores the anticancer activities of DNA-damaging drugs and inhibitors of DNA damage repair, both as single agents and in combinations. Complex tumor spheroids comprised of malignant cells, endothelial cells and mesenchymal stem cells served as an in vitro model for human solid tumors. This model system incorporates physiologically relevant features and patient-derived or established malignant cell lines with clinically relevant genetic alterations from many tumor types. Twenty-six patient-derived or established malignant cell lines were evaluated representing sarcoma, melanoma, small cell lung cancer (SCLC), non-small cell lung cancer (NSCLC), as well as bladder, ovarian and pancreatic cancers. The concentration ranges selected for each drug and investigational agent were based upon clinically achievable concentrations if the clinical Cmax of the agent was known.
Compounds. The drugs and compounds olaparib (NSC753686), talazoparib (NSC767125), berzosertib (NSC777718), elimusertib (NSC800525), nedisertib (NSC802822), VX-984 (NSC792969), AZD-1390 (NSC803789), temozolomide (NSC362856), topotecan (NSC609699), trabectedin (NSC813783), staurosporine (NSC755774), and gemcitabine (NSC613327) were obtained from the National Cancer Institute (NCI) Developmental Therapeutics Program Chemical Repository. The FDA-approved anticancer drug set is available from the Developmental Therapeutics Program at https://dtp.cancer.gov/organization/dscb/obtaining/available_plates.htm. […] The stock solutions were prepared in dimethyl sulfoxide (DMSO, Sigma-Aldrich, St. Louis, MO, cat. D2650) at 400-fold the tested concentration and stored at -70 degrees C. Prior to their use, the stock solutions were diluted in fresh medium and the final DMSO concentration in the assay was 0.25% (v/v). All drugs and investigational agents were tested over a range starting from a high concentration at or near the clinical Cmax and decreasing in half-log increments. If the clinical Cmax for an agent had not been determined, the highest concentration tested was 10 microM.
Cell Lines. The patient-derived cancer cell (PDC) lines: 156681-154-R-J1-PDC, 283228-195-R-J1-PDC, 287954-098-R-J1-PDC, 292921-168-R-J2-PDC, 349418-098-R-PDC, 425362-245-T-J1-PDC, 556581-035-R-J1-PDC, and BL0293-F563-PDC were received from the NCI Patient-Derived Models Repository (PDMR, https://pdmr.cancer.gov). The established cell lines HS-SY-2 (RRID:CVCL_8719), MPNST, and SYO-1 (RRID:CVCL_7146) were obtained from the Sloan Kettering Institute. The alveolar soft parts sarcoma cell line ASPS-1 (RRID:CVCL_S738) was established at the NCI and grown from internal seed stocks. The following established cell lines were purchased from the American Type Culture Collection (ATCC, Manassas, VA): G-401 (ATCC, cat. CRL-1441, RRID:CVCL_0270), SW982 (ATCC, cat. HTB-93, RRID:CVCL_1734), VA-ES-BJ (ATCC, cat. CRL-2138, RRID:CVCL_1785), NCI-H719 (ATCC, cat. CRL-5837, RRID:CVCL_1582), NCI-H196 (ATCC, cat. CRL-5823, RRID:CVCL_1509), NCI-H841 (ATCC, cat. CRL-5845, RRID:CVCL_1595), NCI-H1618 (ATCC, cat. CRL-5879, RRID:CVCL_1480), NCI-H1876 (ATCC, cat. CRL-5902, RRID:CVCL_1503), DMS 114 (ATCC, cat. CRL-2066; RRID:CVCL_1174), NCI-H211 (ATCC, cat. CRL-5824; RRID:CVCL_1529), and SW 1271 (ATCC, cat. CRL-2177, RRID:CVCL_1716). The small cell lung cancer cell line COR-L88 was purchased from Sigma-Aldrich (cat. 92031917-1VL, RRID:CVCL_1141). The non-small cell lung cancer cell lines NCI-H226 (RRID:CVCL_1544) and NCI-H322M (RRID:CVCL_1557) were established at the NCI and grown from internal seed stocks. Pooled donor human umbilical vein endothelial cells (HUVEC, Lonza, cat. CC-2519) and human mesenchymal stem cells (hMSC, Lonza, cat. PT-2501) were purchased from Lonza (Walkersville, MD).
Cell Culture. All cells were maintained in an incubator at 37 degrees C and 5% CO2 with 95% humidity. […]

[1] = curve of first compound, second compound 1 µM
[2] = curve of first compound, second compound 3.16 µM
[3] = curve of first compound, second compound 10 µM
[4] = curve of first compound, second compound 31.6 µM
[5] = curve of first compound, second compound 100 µM

Work on `CNCc1ccc(-c2cc(-c3nc(-c4ccc(S(=O)(=O)C(C)C)cc4)cnc3N)on2)cc1` + Cn1nnc2c(C(N)=O)ncn2c1=O yielded an IC50 [1] of 63 nM, an IC50 [2] of 63.5 nM and an IC50 [3] of 177 nM. It also gave an IC50 [4] of 88 nM, an IC50 [5] of 49.8 nM and a viability, T/C (second compound 1 µM, first compound 0.00949 µM) of 96.3%. It also gave a viability, T/C (second compound 1 µM, first compound 0.03 µM) of 94.5%, a viability, T/C (second compound 1 µM, first compound 0.0949 µM) of 25.5% and a viability, T/C (second compound 1 µM, first compound 0.3 µM) of 33.9%. For the same compound, the viability, T/C (second compound 1 µM, first compound 0.949 µM) was 4.57%, the viability, T/C (second compound 1 µM, first compound 3 µM) was 1.05% and the viability, T/C (second compound 3.16 µM, first compound 0.00949 µM) was 97.7%. It also gave a viability, T/C (second compound 3.16 µM, first compound 0.03 µM) of 74.5%, a viability, T/C (second compound 3.16 µM, first compound 0.0949 µM) of 33% and a viability, T/C (second compound 3.16 µM, first compound 0.3 µM) of 21.8%. The viability, T/C (second compound 3.16 µM, first compound 0.949 µM) was 3.41%, the viability, T/C (second compound 3.16 µM, first compound 3 µM) was 0.87% and the viability, T/C (second compound 10 µM, first compound 0.00949 µM) was 101%. The viability, T/C (second compound 10 µM, first compound 0.03 µM) was 99.2%, the viability, T/C (second compound 10 µM, first compound 0.0949 µM) was 89.8% and the viability, T/C (second compound 10 µM, first compound 0.3 µM) was 16.2%. It also gave a viability, T/C (second compound 10 µM, first compound 0.949 µM) of 2.29%, a viability, T/C (second compound 10 µM, first compound 3 µM) of 5.12% and a viability, T/C (second compound 31.6 µM, first compound 0.00949 µM) of 97.5%. For the same compound, the viability, T/C (second compound 31.6 µM, first compound 0.03 µM) was 96.3%, the viability, T/C (second compound 31.6 µM, first compound 0.0949 µM) was 45% and the viability, T/C (second compound 31.6 µM, first compound 0.3 µM) was 17.2%. For the same compound, the viability, T/C (second compound 31.6 µM, first compound 0.949 µM) was 1.91%, the viability, T/C (second compound 31.6 µM, first compound 3 µM) was 7.45% and the viability, T/C (second compound 100 µM, first compound 0.00949 µM) was 92.9%. The viability, T/C (second compound 100 µM, first compound 0.03 µM) was 48%, the viability, T/C (second compound 100 µM, first compound 0.0949 µM) was 58.3% and the viability, T/C (second compound 100 µM, first compound 0.3 µM) was 5.09%. The viability, T/C (second compound 100 µM, first compound 0.949 µM) was 8.18% and the viability, T/C (second compound 100 µM, first compound 3 µM) was 0.32%.

`CC(C)n1c(=O)n(C)c2cnc3cc(F)c(-c4ccc(OCCCN5CCCCC5)nc4)cc3c21` was tested, and the viability, T/C (compound 0.0316 µM) was 96.6% and 93.7% and 101%, the viability, T/C (compound 0.1 µM) was 94.6% and 91.3% and 99.4% and the viability, T/C (compound 0.316 µM) was 93.6% and 95.8% and 99.8%. The viability, T/C (compound 1 µM) was 94.1% and 91.1% and 99.3%, the viability, T/C (compound 3.16 µM) was 91.6% and 80.8% and 97% and the viability, T/C (compound 10 µM) was 88.3% and 76.8% and 90.8%. The IC50 (curve of compound) was greater than 10000 nM.

Work on `COc1ccc([C@@H](O)c2cc(-c3ncnc4cc(N5CCOCC5)ccc34)c(F)cc2Cl)nn1` + Cn1nnc2c(C(N)=O)ncn2c1=O yielded an IC50 [1] of 2040 nM, an IC50 [2] of 2010 nM and an IC50 [3] of 2050 nM. For the same compound, the IC50 [4] was 2270 nM, the IC50 [5] was 1820 nM and the viability, T/C (second compound 1 µM, first compound 0.0316 µM) was 100%. For the same compound, the viability, T/C (second compound 1 µM, first compound 0.1 µM) was 99.1%, the viability, T/C (second compound 1 µM, first compound 0.316 µM) was 92.7% and the outcome (second compound 1 µM, first compound 1 µM) was “inactive”. It also gave a viability, T/C (second compound 1 µM, first compound 3.16 µM) of 36%, a viability, T/C (second compound 1 µM, first compound 10 µM) of 7.89% and a viability, T/C (second compound 3.16 µM, first compound 0.0316 µM) of 102%. It also gave a viability, T/C (second compound 3.16 µM, first compound 0.1 µM) of 104%, a viability, T/C (second compound 3.16 µM, first compound 0.316 µM) of 97.1% and a viability, T/C (second compound 3.16 µM, first compound 1 µM) of 70.7%. The viability, T/C (second compound 3.16 µM, first compound 3.16 µM) was 36.4%, the viability, T/C (second compound 3.16 µM, first compound 10 µM) was 8.99% and the viability, T/C (second compound 10 µM, first compound 0.0316 µM) was 103%. It also gave a viability, T/C (second compound 10 µM, first compound 0.1 µM) of 105%, a viability, T/C (second compound 10 µM, first compound 0.316 µM) of 91% and a viability, T/C (second compound 10 µM, first compound 1 µM) of 80.1%. It also gave a viability, T/C (second compound 10 µM, first compound 3.16 µM) of 32.1%, a viability, T/C (second compound 10 µM, first compound 10 µM) of 9.08% and a viability, T/C (second compound 31.6 µM, first compound 0.0316 µM) of 97.5%. The viability, T/C (second compound 31.6 µM, first compound 0.1 µM) was 99.7%, the viability, T/C (second compound 31.6 µM, first compound 0.316 µM) was 95.3% and the viability, T/C (second compound 31.6 µM, first compound 1 µM) was 79.3%. For the same compound, the viability, T/C (second compound 31.6 µM, first compound 3.16 µM) was 38.1%, the viability, T/C (second compound 31.6 µM, first compound 10 µM) was 8.74% and the viability, T/C (second compound 100 µM, first compound 0.0316 µM) was 97.5%. The viability, T/C (second compound 100 µM, first compound 0.1 µM) was 100%, the viability, T/C (second compound 100 µM, first compound 0.316 µM) was 87% and the viability, T/C (second compound 100 µM, first compound 1 µM) was 71%. For the same compound, the viability, T/C (second compound 100 µM, first compound 3.16 µM) was 31.5% and the viability, T/C (second compound 100 µM, first compound 10 µM) was 7.13%.
